{"source": "paper PMC11471595", "about": "“Quality by design-based approach for the development of an analytical method for quantifying ponatinib in rat plasma” (Heliyon, 2024)", "key": {"[1]": {"test": "In vivo pharmacokinetic study of ponatinib in rats (plasma by HPLC-FLD, non-compartmental analysis)", "set-up": "species or system Male SD rats", "conditions": "male, rat; for half-life: n = 3, read-out: T1/2 (terminal half-life) (converted)", "procedure": "Animal experiments were conducted following the guidelines of the Korea Research Institute of Bioscience and Biotechnology (KRIBB-AEC-20309). Male SD rats (Koatech Inc.; Pyeongtaek, Gyeonggi, Republic of Korea) were acclimated to laboratory conditions for at least one week before experimentation. Animals were permitted ad libitum access to food and water, except during the 8 h fasting period before drug administration; however, water was continuously available.\nRats were administered ponatinib, prepared in a DMAC, cremophor EL, and 20 % HPβCD) in water (10:10:80) for intravenous (IV; 4 mg/kg) and oral administration (7.5 mg/kg). Blood samples (approximately 100 μL) were collected in lithium heparin-treated tubes through the jugular vein at 5, 15, and 30 min, and 1, 3, 6, 12, 24, 36, and 48 h for the IV group (n = 3) and at 30 min and 1, 2, 4, 6, 8, 12, 24, 36, and 48 h post-dose for the oral group (n = 3). The samples were centrifuged at 13,500×g for 10 min at 4 °C. Plasma was stored at −20 °C until analysis.\nPlasma ponatinib concentrations were determined using the HPLC-FLD method developed in this study. Pharmacokinetic parameters were calculated using non-compartmental analysis via WinNonlin software (Pharsight Corporation, Mountain View, CA, USA). The key parameters were the area under the plasma concentration-time curve from zero to the last quantifiable time point (AUClast) and infinity (AUCinf), both of which were calculated using the linear trapezoidal method. The terminal half-life (T1/2) was derived from the elimination constant at the terminal phase (λ), and total clearance (CL) and the steady-state volume of distribution (Vss) were calculated. The maximum plasma concentration (Cmax) and time to reach Cmax (Tmax) were obtained directly from the plasma concentration-time graph. The oral bioavailability (F) was determined by dividing the dose-normalized AUCinf value following oral administration by that following IV administration."}, "[2]": {"test": "Stability of ponatinib in rat plasma under storage conditions", "format": "in vitro ADME", "conditions": "for Stability (%, mean ± SD): n = 3", "procedure": "The stability of ponatinib in rat plasma was determined under various conditions using LQC and HQC samples in triplicate. The stability tests included bench-top exposure at room temperature for 2 h, long-term storage at −20 °C for 3 weeks, three freeze-thaw cycles, and 24-h autosampler storage at 10 °C. The stability of ponatinib was determined by comparing the measured concentrations with nominal values."}}, "note": "Read-outs that look alike come from different tables or passages of the source."}
{"smiles": "Cc1ccc(C(=O)Nc2ccc(CN3CCN(C)CC3)c(C(F)(F)F)c2)cc1C#Cc1cnc2cccnn12", "note": "[ponatinib, Ponatinib]", "values": [{"measurement": "bioavailability", "setting": "[1]; SD, PO 7.5 mg/kg vs IV 4 mg/kg, dose-normalized AUCPO/AUCIV × 100, read-out: F (oral bioavailability)", "value": "48.2 ± 3.9", "unit": "%"}, {"measurement": "AUC(0-inf)", "setting": "[1]; IV 4 mg/kg, mean ± SD, n = 3", "value": "6140 ± 750", "unit": "ng·h/mL"}, {"measurement": "AUC(0-t)", "setting": "[1]; IV 4 mg/kg, mean ± SD, n = 3", "value": "6100 ± 730", "unit": "ng·h/mL"}, {"measurement": "clearance", "setting": "[1]; IV 4 mg/kg, mean ± SD, n = 3, read-out: CL (total clearance) (converted)", "value": 10.9, "unit": "mL/min/kg"}, {"measurement": "half-life", "setting": "[1]; IV 4 mg/kg, mean ± SD", "value": "6.84 ± 0.22", "unit": "h"}, {"measurement": "Vd", "setting": "[1]; IV 4 mg/kg, mean ± SD, n = 3, read-out: Vss (steady-state volume of distribution)", "value": "5.39 ± 0.2", "unit": "L/kg"}, {"measurement": "AUC(0-inf)", "setting": "[1]; PO 7.5 mg/kg, mean ± SD, n = 3", "value": "5520 ± 280", "unit": "ng·h/mL"}, {"measurement": "AUC(0-t)", "setting": "[1]; PO 7.5 mg/kg, mean ± SD, n = 3", "value": "5400 ± 270", "unit": "ng·h/mL"}, {"measurement": "Cmax", "setting": "[1]; PO 7.5 mg/kg, mean ± SD, n = 3", "value": "308 ± 11", "unit": "ng/mL"}, {"measurement": "Tmax", "setting": "[1]; PO 7.5 mg/kg, mean ± SD, n = 3", "value": "5.34 ± 2.31", "unit": "h"}, {"measurement": "half-life", "setting": "[1]; PO 7.5 mg/kg, mean ± SD", "value": "8.75 ± 0.67", "unit": "h"}, {"measurement": "Stability (%, mean ± SD)", "setting": "[2]; processed rat plasma, autosampler (10 °C for 24 h), HQC 800 ng/mL", "value": "95.2 ± 11.1", "unit": "%"}, {"measurement": "Stability (%, mean ± SD)", "setting": "[2]; processed rat plasma, autosampler (10 °C for 24 h), LQC 3 ng/mL", "value": "93.4 ± 1.3", "unit": "%"}, {"measurement": "Stability (%, mean ± SD)", "setting": "[2]; rat plasma, bench top (room temperature for 2 h), HQC 800 ng/mL", "value": "91.5 ± 2.1", "unit": "%"}, {"measurement": "Stability (%, mean ± SD)", "setting": "[2]; rat plasma, bench top (room temperature for 2 h), LQC 3 ng/mL", "value": "108 ± 6", "unit": "%"}, {"measurement": "Stability (%, mean ± SD)", "setting": "[2]; rat plasma, freeze-thaw (3 cycles), HQC 800 ng/mL", "value": "92.1 ± 5.0", "unit": "%"}, {"measurement": "Stability (%, mean ± SD)", "setting": "[2]; rat plasma, freeze-thaw (3 cycles), LQC 3 ng/mL", "value": "89.1 ± 7.0", "unit": "%"}, {"measurement": "Stability (%, mean ± SD)", "setting": "[2]; rat plasma, long term (−20 °C for 3 weeks), HQC 800 ng/mL", "value": "96.4 ± 4.3", "unit": "%"}, {"measurement": "Stability (%, mean ± SD)", "setting": "[2]; rat plasma, long term (−20 °C for 3 weeks), LQC 3 ng/mL", "value": "93.1 ± 7.9", "unit": "%"}, {"measurement": "Stability, range over LQC and HQC", "setting": "[2]; rat plasma, room temperature for 2 h", "value": "91.5 % to 108"}]}
